Source: US12655173B2, “Hybrid amide derivatives of amphotericin B” (priority 2020, dated 2026)
Values after ≈ are worked out from the molar mass of the structure shown.

How the values were obtained:
Solubility in D5W = settings: solubility in D5W
A. thermomutatus = experiment: MIC against moulds; format: cell-based; settings: for MIC A. thermomutatus: 6 isolates, AmB (AmBisome)
CEA10 (clinical isolate) = experiment: MIC against azole and echinocandin resistant fungal strains (CLSI); format: cell-based, A. funigatus; settings: read-out: MIC CEA10
Experimental: This experiment was performed following the standard CLSI protocol.

| Compound | Fold of Increase w.r.t. AmB (Solubility in D5W) | MIC A. thermomutatus (A. thermomutatus) | MIC (CEA10 (clinical isolate)) | MIC (A. thermomutatus; Aspergillus thermomutatus, read-out: MIC A. thermomutatus) |
| --- | --- | --- | --- | --- |
| CC1C=CC=CC=CC=CC=CC=CC=CC(OC2OC(C)C(O)C(N)C2O)CC2OC(O)(CC(O)CC(O)C(O)CCC(O)CC(O)CC(=O)OC(C)C(C)C1O)CC(O)C2C(=O)NC(CO)(CO)CO (stereo not drawn) [Compound 2] | 15.9 | 2.1 µM (≈ 2.16 µg/mL) |  |  |
| C[C@@H](c1ncncc1F)[C@](O)(Cn1cncn1)c1ccc(F)cc1F [Voriconazole] |  |  | 1.43 µM (≈ 0.5 µg/mL) |  |
| C[C@@H]1[C@H](O)[C@@H](C)/C=C/C=C/C=C/C=C/C=C/C=C/C=C/[C@H](OC2O[C@H](C)[C@@H](O)[C@H](N)[C@@H]2O)C[C@@H]2O[C@](O)(C[C@@H](O)C[C@@H](O)[C@H](O)CC[C@@H](O)C[C@@H](O)CC(=O)O[C@H]1C)C[C@H](O)[C@H]2C(=O)O (stereo partly drawn) [AmB, Amphotericin B] |  |  |  | 0.6 µM (≈ 0.554 µg/mL) |
| CC1C=CC=CC=CC=CC=CC=CC=CC(OC2OC(C)C(O)C(N)C2O)CC2OC(O)(CC(O)CC(O)C(O)CCC(O)CC(O)CC(=O)OC(C)C(C)C1O)CC(O)C2C(=O)NC(CO)CO (stereo not drawn) [Compound 1] | >314 | 1.45 µM (≈ 1.45 µg/mL) |  |  |
